Assay results published in paper PMC12260505, “First-in-Human Phase I/IIa Study of the First-in-Class CDK2/4/6 Inhibitor PF-06873600 Alone or with Endocrine Therapy in Patients with Breast Cancer” (Clinical Cancer Research, 2025).
Values joined by “and” are separate entries in the source; they are usually repeats but may differ in a detail not shown here. Equal values may be shown once.

Test: Plasma PF-06873600 pharmacokinetics (LC/MS-MS, noncompartmental analysis)
Assay type: in vivo, human
Procedure: Plasma samples were analyzed for PF-06873600 concentrations at Q2 Solutions using a validated analytic assay in compliance with Pfizer standard operating procedures. PF-06873600 samples were assayed by a validated LC/MS-MS using positive ionization mode. PK parameters were calculated using noncompartmental analysis of plasma concentration–time data.

[1] = 25 mg twice daily, after multiple dosing
[2] = Cycle 1 Day 1, Part 1 25 mg BID IR (pooled cohorts)
[3] = Cycle 1 Day 1, Part 1A 1 mg BID IR
[4] = Cycle 1 Day 1, Part 1A 2 mg BID IR
[5] = Cycle 1 Day 1, Part 1A 5 mg BID IR
[6] = Cycle 1 Day 1, Part 1A 10 mg BID IR
[7] = Cycle 1 Day 1, Part 1A 25 mg BID Biomarker IR
[8] = Cycle 1 Day 1, Part 1A 25 mg BID IR
[9] = Cycle 1 Day 1, Part 1A 35 mg BID IR
[10] = Cycle 1 Day 1, Part 1A 35 mg BID Intm 5/2 IR
[11] = Cycle 1 Day 1, Part 1A 50 mg BID IR
[12] = Cycle 1 Day 1, Part 1B 25 mg BID +Ful IR
[13] = Cycle 1 Day 1, Part 1B 25 mg BID +Let IR
[14] = Cycle 1 Day 1, Part 1C MR 20 mg lead-in IR 25 mg BID
[15] = Cycle 1 Day 1, Part 1C MR 30 mg BID long duration
[16] = Cycle 1 Day 15, Part 1 25 mg BID IR (pooled cohorts)
[17] = Cycle 1 Day 15, Part 1A 1 mg BID IR

Q: Which results are given for C[C@@]1(O)CCC[C@H]1n1c(=O)c(C(F)F)cc2cnc(NC3CCN(S(C)(=O)=O)CC3)nc21 [PF-06873600]?
A: Geometric mean coefficient of variation percentage, AUCtau [1]: 45%; Geometric mean coefficient of variation percentage, Cmax [1]: 43%; Geometric mean coefficient of variation percentage, Cmin [1]: 119%; Geometric mean coefficient of variation percentage, AUCinf (25 mg twice daily, single dose): 58%; Geometric mean coefficient of variation percentage, Cmax (25 mg twice daily, single dose): 56%; AUCinf, geometric mean (%CV) [2]: 1019 (58) ng.h/mL; AUClast, geometric mean (%CV) [2]: 912.4 (52) ng.h/mL; CL/F, geometric mean (%CV) [2]: 24.55 (58) L/h; Cmax, geometric mean (%CV) [2]: 194 ng/mL; Tmax, median (range) [2]: 2.00 h; Vz/F, geometric mean (%CV) [2]: 85.26 (52) L; t1/2, arithmetic mean±standard deviation [2]: 2.444 ± 0.4523 h; AUCinf, individual value(s) [3]: 21.0 ng·h/mL; AUClast, individual value(s) [3]: 18.3 ng·h/mL; CL/F, individual value(s) [3]: 47.6 L/h; Cmax, individual value(s) [3]: 5.39 ng/mL; Tmax, median (range) [3]: 2.17 h; Vz/F, individual value(s) [3]: 111 L; t1/2, individual value(s) [3]: 5800 s; AUCinf, individual value(s) [4]: 45.2 ng·h/mL; AUClast, individual value(s) [4]: 39.2 ng·h/mL and 58.3 ng·h/mL; CL/F, individual value(s) [4]: 44.2 L/h; Tmax, median (range) [4]: 1.25 h; Vz/F, individual value(s) [4]: 116 L; t1/2, individual value(s) [4]: 6550 s; AUCinf, individual value(s) [5]: 101 ng·h/mL; AUClast, individual value(s) [5]: 96.6 ng·h/mL and 442 ng·h/mL; CL/F, individual value(s) [5]: 49.7 L/h; Tmax, median (range) [5]: 2.02 h; Vz/F, individual value(s) [5]: 141 L; t1/2, individual value(s) [5]: 7060 s; AUCinf, geometric mean (%CV) [6]: 648.4 (60) ng.h/mL; AUClast, geometric mean (%CV) [6]: 599.4 (53) ng.h/mL; CL/F, geometric mean (%CV) [6]: 15.43 (60) L/h; Cmax, geometric mean (%CV) [6]: 164 ng/mL; Tmax, median (range) [6]: 0.983 h; Vz/F, geometric mean (%CV) [6]: 55.32 (28) L; t1/2, arithmetic mean±standard deviation [6]: 2.567 h; AUCinf, geometric mean (%CV) [7]: 892.6 (73) ng.h/mL; AUClast, geometric mean (%CV) [7]: 787.9 (59) ng.h/mL; CL/F, geometric mean (%CV) [7]: 28.04 (73) L/h; Tmax, median (range) [7]: 1.90 h; Vz/F, geometric mean (%CV) [7]: 97.32 (56) L; t1/2, arithmetic mean±standard deviation [7]: 2.446 h; AUCinf, geometric mean (%CV) [8]: 1492 (20) ng.h/mL; AUClast, geometric mean (%CV) [8]: 1295 (25) ng.h/mL; CL/F, geometric mean (%CV) [8]: 16.78 (20) L/h; Cmax, geometric mean (%CV) [8]: 244 ng/mL; Tmax, median (range) [8]: 2.17 h; Vz/F, geometric mean (%CV) [8]: 61.33 (20) L; t1/2, arithmetic mean±standard deviation [8]: 2.540 h; AUCinf, individual value(s) [9]: 2010 ng·h/mL and 3400 ng·h/mL; AUClast, geometric mean (%CV) [9]: 2510 (25) ng.h/mL; CL/F, individual value(s) [9]: 10.3 L/h and 17.4 L/h; Cmax, geometric mean (%CV) [9]: 388 ng/mL; Tmax, median (range) [9]: 3.64 h; Vz/F, individual value(s) [9]: 55.5 L and 60.0 L; t1/2, individual value(s) [9]: 8600 s and 13500 s; AUCinf, geometric mean (%CV) [10]: 1614 (48) ng.h/mL; AUClast, geometric mean (%CV) [10]: 1395 (38) ng.h/mL; CL/F, geometric mean (%CV) [10]: 21.70 (48) L/h; Cmax, geometric mean (%CV) [10]: 276 ng/mL; Tmax, median (range) [10]: 2.02 h; Vz/F, geometric mean (%CV) [10]: 86.06 (37) L; t1/2, arithmetic mean±standard deviation [10]: 2.809 h; AUCinf, geometric mean (%CV) [11]: 1875 (41) ng.h/mL; AUClast, geometric mean (%CV) [11]: 1976 (49) ng.h/mL; CL/F, geometric mean (%CV) [11]: 26.63 (41) L/h; Cmax, geometric mean (%CV) [11]: 394 ng/mL; Tmax, median (range) [11]: 3.49 h; Vz/F, geometric mean (%CV) [11]: 79.74 (15) L; t1/2, arithmetic mean±standard deviation [11]: 2.163 h; AUCinf, geometric mean (%CV) [12]: 884.3 (34) ng.h/mL; AUClast, geometric mean (%CV) [12]: 1034 (43) ng.h/mL; CL/F, geometric mean (%CV) [12]: 28.26 (34) L/h; Cmax, geometric mean (%CV) [12]: 225 ng/mL; Tmax, median (range) [12]: 1.97 h; Vz/F, geometric mean (%CV) [12]: 83.54 (17) L; t1/2, arithmetic mean±standard deviation [12]: 2.128 h; AUCinf, geometric mean (%CV) [13]: 1142 (50) ng.h/mL; AUClast, geometric mean (%CV) [13]: 1040 (46) ng.h/mL; CL/F, geometric mean (%CV) [13]: 21.87 (50) L/h; Cmax, geometric mean (%CV) [13]: 228 ng/mL; Tmax, median (range) [13]: 2.52 h; Vz/F, geometric mean (%CV) [13]: 72.18 (37) L; t1/2, arithmetic mean±standard deviation [13]: 2.428 h; AUCinf, geometric mean (%CV) [14]: 593.3 (17) ng.h/mL; AUClast, geometric mean (%CV) [14]: 596.8 (33) ng.h/mL; CL/F, geometric mean (%CV) [14]: 42.14 (17) L/h; Cmax, geometric mean (%CV) [14]: 122 ng/mL; Tmax, median (range) [14]: 2.00 h; Vz/F, geometric mean (%CV) [14]: 132.2 (52) L; t1/2, arithmetic mean±standard deviation [14]: 2.250 h; AUClast, geometric mean (%CV) [15]: 192.0 (201) ng.h/mL; Cmax, geometric mean (%CV) [15]: 43.5 ng/mL; Tmax, median (range) [15]: 10.0 (5.35–10.2) h; AUCtau, geometric mean (%CV) [16]: 1351 (45) ng.h/mL; CL/F, geometric mean (%CV) [16]: 18.53 (45) L/h; Cmax, geometric mean (%CV) [16]: 315.5 (43) ng/mL; Cmin, geometric mean (%CV) [16]: 30.23 (119) ng/mL; Rac (observed accumulation ratio based on AUC), geometric mean (%CV) [16]: 1.135 (34); Tmax, median (range) [16]: 1.94 h; Vz/F, geometric mean (%CV) [16]: 75.77 (43) L; t1/2, arithmetic mean±standard deviation [16]: 2.765 h; AUCtau, individual value(s) [17]: 25.3 ng·h/mL; CL/F, individual value(s) [17]: 39.5 L/h
